From patent US12239641B2, “Methods of treating or preventing fibrosis in non-alcoholic fatty liver disease” (priority 2018, dated 2025)
“Also recorded” adds a separate entry of the source.

Columns and labels:
ADRA2a = target: T1, ADRA2a (Homo sapiens, UniProt P08913); settings: some affinity for all; cited from earlier work
T1 sequence (P08913 1-465): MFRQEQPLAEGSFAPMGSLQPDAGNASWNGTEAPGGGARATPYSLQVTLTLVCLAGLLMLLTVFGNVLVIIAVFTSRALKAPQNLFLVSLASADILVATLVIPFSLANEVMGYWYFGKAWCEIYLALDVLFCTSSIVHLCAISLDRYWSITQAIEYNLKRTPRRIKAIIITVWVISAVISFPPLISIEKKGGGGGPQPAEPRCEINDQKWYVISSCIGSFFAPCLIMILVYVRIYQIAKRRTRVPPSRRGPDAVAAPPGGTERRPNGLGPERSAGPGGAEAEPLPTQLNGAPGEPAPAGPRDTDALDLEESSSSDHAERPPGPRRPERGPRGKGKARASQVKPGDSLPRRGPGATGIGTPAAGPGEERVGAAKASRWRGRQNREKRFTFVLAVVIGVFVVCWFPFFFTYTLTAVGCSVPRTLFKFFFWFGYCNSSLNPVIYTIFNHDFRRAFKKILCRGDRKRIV

[1] = compared with Yohimbine; cited from earlier work
[2] = tested on: noradrenaline (Norepinephrine—NE); assay: Noradrenaline levels (HPLC) in HFHC NASH rats; type: in vivo, Sprague Dawley rats; settings: HFHC+YoHCl vs HFHC
Description: (§1) Animals were studied after 16 weeks of feeding.

working memory = assay: Working memory test in HFHC NASH rats; type: in vivo, Sprague Dawley rats; settings: HFHC diet 16 weeks, Yohimbine for the last 8 weeks vs placebo
Description: as §1
Working memory and behavioural testing was through standard psychometric assessments before termination, such as application of the Barnes Maze.

[3] = tested on: rat model of NASH induced by a high fat high cholesterol (HFHC) diet; assay: Rat model of NASH induced by HFHC diet: liver weight, fat, AST, histology scores, fibrosis; type: in vivo, Sprague Dawley rats
Description: as §1

[4] = tested on: Genes involved in fibrogenesis (TIMP-1 and Collal), MMP2; assay: Expression of genes involved in fibrogenesis in HFHC NASH rats; type: in vivo, Sprague Dawley rats
Description: as §1

[5] = tested on: cytokines and chemokines (Cx3CL1, CxCL5, CCL3); assay: Cytokines and chemokines (ELISA) in HFHC NASH rats; type: in vivo, Sprague Dawley rats
Description: as §1

ADRA2A receptors = settings: HFHC+YoHCl vs HFHC
Description: Sprague Dawley rats (240-300 g) were randomly divided into 3 groups (Standard diet, HFHC+placebo, HFHC+Yohimbine). The animals were kept under controlled temperature (20±2° C.) and light (lights on at 08:00-20:00). The standard diet was composed of the following energy sources: 67 g carbohydrates (70 kcal %), 4 g fat (10 kcal %), and 19 g protein (20 kcal %) per 100 g diet. The HFC diet contained 19 g carbohydrates (15 kcal %), 39 g fat (65 kcal %), 2 g cholesterol, and 27 g protein (20 kcal %) per 100 g diet. The study was performed in accordance with local and national guidelines for animal welfare and approved by the institutional Animal Ethics Committee.
Animals were studied after 16 weeks of feeding. Animals in the HFHC group were randomised after 8 weeks of feeding to either treatment with placebo or Yohimbine, in addition to their ongoing diets. Yohimbine Hydrochloride (Product Number Y3125, Sigma-Aldrich, Dorset, UK), an ADRA2A antagonist, was administered in the drinking water at a dosage of 0.4 mg/kg rat/day. In the placebo treated group, an equivalent volume of water was administered. The rats were weighed daily and the Yohimbine treatment weight adjusted.
At the end of 16 weeks of feeding, rats were exsanguinated and the blood and tissues harvested and stored at −80 C for subsequent analyses. […]

[6] = tested on: Primary human hepatic stellate cells; assay: 3D collagen gel contraction of hepatic stellate cells; type: cell-based; settings: 6 hours
Description: Primary human HSCs (huHSC) were isolated from wedge sections of liver tissue obtained from patients with no history of liver disease undergoing liver resection for colorectal metastasis in the Royal Free Hospital, with local Tissue act for patient benefit ethics approval. All the participants provided written informed consent in accordance with the Helsinki Declaration.
Cells isolation in brief: 10 g of total human liver tissue was digested with 0.01% Collagenase, 0.05% Pronase and 0.001% DNase I without performing perfusion. The homogenate was filtered through a 100 µm cell strainer (BD Biosciences) and the flow-through was centrifuged at 50×g for 2 minutes at 4° C. After washing the supernatant, gradient centrifugation was performed at 1400×g for 17 minutes at 4° C. using an 11.5% Optiprep gradient (Sigma-Aldrich Company Ltd.). Finally, the interface was collected and washed. […]
Human and rat HSCs were cultured within 3D collagen gels (Fibroblast-populated collagen lattices; FPCL). […] Gel areas were measured using ImageJ v1.49 software (US National Institutes of Health, Bethesda MD, USA, http://imagej.nih.gov/ij/).

[7] = H&E liver, HFHC+YoHCl (n=9) vs HFHC (n=6), 8 weeks treatment
[8] = HFHC model, Yohimbine therapy for 8 weeks, p=0.03

COC(=O)[C@H]1[C@H]2C[C@H]3c4[nH]c5ccccc5c4CCN3C[C@H]2CC[C@@H]1O [Rauwolscine]
selectivity among ADRA2 subtypes (ADRA2a): most selective for ADRA2a

COC(=O)[C@@H]1[C@H]2C[C@H]3c4[nH]c5cc(O)ccc5c4CCN3C[C@@H]2CC[C@@H]1O [11-OH Yohimbine]
half life [1]: longer half life | oral bioavailability [1]: better oral bioavailability

COC(=O)[C@@H]1[C@H]2C[C@H]3c4[nH]c5ccccc5c4CCN3C[C@@H]2CC[C@@H]1O [Yohimbine]
selectivity among ADRA2 subtypes (ADRA2a): most selective for ADRA2a | Levels of noradrenaline (NE) [2]: further but non-statistical increase | working memory (working memory): significantly improved; also recorded: improves | hepatic inflammation score [3, 7]: significant reduction | hepatic steatosis score [3, 7]: significant reduction | hepatocyte ballooning score [3, 7]: significant reduction | non-alcoholic fatty liver disease (NAFLD) activity score (NAS) [3, 7]: significant reduction | fibrosis (Picro sirius red stained liver) ([3]; HFHC NASH rats with Yohimbine vs without treatment): visually decreased | Collagen proportionate area (CPA) ([3]; HFHC NASH rats with Yohimbine vs without treatment, n=6 per group, HFHCD vs HFHCD_YoHCl p=0.016): reduced | liver fat ([3]; HFHC diet 16 wks, Yohimbine for last 8 weeks): reduced | Liver-body weight ratio ([3]; HFHC diet 16 wks, Yohimbine for last 8 weeks, 0.4 mg/kg rat/day in drinking water, HFHCD vs HFHCD_YoHCl p=0.014): restored | AST (liver injury) ([3]; HFHC rats after 8 weeks of Yohimbine therapy, HFHCD vs HFHCD_YoHCl p=0.007): decreased | Collal gene expression [4, 8]: significantly (p=0.03 for both) reduced | TIMP-1 gene expression [4, 8]: significantly (p=0.03 for both) reduced | MMP2 expression ([4]; HFHC rats, Yohimbine hydrochloride therapy): reduced | CCL3 protein expression ([5]; HFHC+YoHCl (8 weeks) vs HFHC): decrease markedly | Cx3CL1 protein expression ([5]; HFHC+YoHCl (8 weeks) vs HFHC): decrease markedly | CxCL5 protein expression ([5]; HFHC+YoHCl (8 weeks) vs HFHC): decrease markedly | cytokines and chemokines (liver and systemic inflammation) ([5]; HFHCD_YoHCl vs HFHCD, 16 weeks diet): reduced liver and systemic inflammation | ADRA2A receptor expression in liver tissue (ADRA2A receptors): does not significantly reduce

N=C(N)NC(=O)Cc1c(Cl)cccc1Cl [Guanfacine]
contraction in a 3D collagen gel ([6]; 5 uM Guanfacine vs serum free medium): significantly greater contraction

CC1c2ccccc2CN1CC1=NCCN1 (stereo not shown) [BRL44408]
contraction in a 3D collagen gel ([6]; 5 uM Guanfacine and 5 uM BRL44408 vs guanfacine alone): less contraction
